Measured values published in patent US20100098782A1, “USE OF SODIUM ACID SULFATE AS A DISINFECTANT” (JOHNSONDIVERSEY, INC., priority 2008, published 2010).
Where “and” joins values, the source holds several entries; their conditions need not be identical. Equal values may be shown once.

Assays:
Salmonella enteriditis = assay: Antimicrobial effectiveness, suspension contact test; type: cell-based
Experimental: In order to determine the antimicrobial effectiveness of the present invention, Salmonella enteriditis at 120,000,000 organisms per milliliter was contacted for 30 seconds, 1 minute, or 2 minutes, with 2,000 ppm SAS, or 4,000 ppm SAS at the indicated pH. The neutralizer was 0.2M Phosphate Buffer, pH 7.0, and the growth medium was 3M Aerobic Count Petrifilm using an incubation time of 4 days at 35° C.

[1] = test system: organisms on freshly killed whole birds (3M Aerobic Count Petrifilm); assay: Whole bird carcass dip test, aerobic count; settings: for Organisms/Bird: individual birds
Experimental: In order to test the efficacy of the composition of the present invention for use in treating animal carcasses, freshly killed whole birds were dipped and completely immersed in 13 liters of treatment solution for 10 seconds. […] The growth medium was 3M Aerobic Count Petrifilm. The incubation was 2-3 days at 35° C. […] The same test was repeated using commercially available products, […]12, and Eden, comparing these with sodium acid sulfate and sodium acid sulfate in combination with citric acid.

[2] = test system: Escherichia coli, ATCC #11229; assay: Modification of the Germicidal and Detergent Sanitizing Action of Disinfectants (A.O.A.C.); type: cell-based; settings: 4000 ppm, 25° C.
Experimental: The germicidal effectiveness of 4000 ppm of sodium acid sulfate was tested at various levels of pH. The pH of the solutions was adjusted by addition of sodium hydroxide. The test method was A Modification of the Germicidal and Detergent Sanitizing Action of Disinfectants, A.O.A.C., 17th Edition 2000. The test organism was Escherichia coli, ATCC #11229 (560,000 org/ml), which was contacted with the sodium acid sulfate for 10 seconds and 30 seconds at 25° C. The recovery medium was Tryptone Glucose Extract Agar with Asolectin and Tween 80. Phosphate Buffer 0.2M was employed.

[3] = 2000 ppm, pH 1.5, 30 seconds contact
[4] = 2000 ppm, pH 1.5, 2 minutes contact
[5] = 2000 ppm, pH 1.75, 30 seconds contact
[6] = 2000 ppm, pH 1.75, 1 minute contact
[7] = 2000 ppm, pH 2.0, 30 seconds contact
[8] = 2000 ppm, pH 2.0, 1 minute contact
[9] = 2000 ppm, pH 2.0, 2 minutes contact
[10] = 2000 ppm, pH 2.25, 30 seconds contact
[11] = 2000 ppm, pH 2.25, 1 minute contact
[12] = 2000 ppm, pH 2.25, 2 minutes contact
[13] = 2000 ppm, pH 2.5, 30 seconds contact
[14] = 2000 ppm, pH 2.5, 1 minute contact
[15] = 2000 ppm, pH 2.5, 2 minutes contact
[16] = 4000 ppm, pH 1.5, 30 seconds contact
[17] = 4000 ppm, pH 1.75, 30 seconds contact
[18] = 4000 ppm, pH 2.0, 30 seconds contact
[19] = 4000 ppm, pH 2.25, 30 seconds contact
[20] = 4000 ppm, pH 2.25, 1 minute contact
[21] = 4000 ppm, pH 2.25, 2 minutes contact
[22] = 4000 ppm, pH 2.5, 30 seconds contact
[23] = 4000 ppm, pH 2.5, 1 minute contact
[24] = 4000 ppm, pH 2.5, 2 minutes contact
[25] = 2000 ppm SAS, 10 seconds dip, pre 5 bird dip pH 1.60, post pH 1.78
[26] = 2000 ppm SAS, repeated test (Table 5)
[27] = 4000 ppm SAS, 10 seconds dip, pre 5 bird dip pH 1.56, post pH 1.75

O=S(=O)([O-])O.[Na+] [SAS, sodium acid sulfate]
% Reduction (Salmonella enteriditis; [3]): 90.250% and 85.250% | Survivors (Salmonella enteriditis; [3]): 11,700,000 org/ml and 17,700,000 org/ml | % Reduction (Salmonella enteriditis; 2000 ppm, pH 1.5, 1 minute contact): 99.962% and 99.983% | % Reduction (Salmonella enteriditis; [4]): >99.999% | Survivors (Salmonella enteriditis; [4]): 10 org/ml and 20 org/ml | % Reduction (Salmonella enteriditis; [5]): <79.167% | Survivors (Salmonella enteriditis; [5]): >25,000,000 org/ml | % Reduction (Salmonella enteriditis; [6]): <97.917% | Survivors (Salmonella enteriditis; [6]): >25,000,000 org/ml | % Reduction (Salmonella enteriditis; 2000 ppm, pH 1.75, 2 minutes contact): 98.192% and 98.817% | % Reduction (Salmonella enteriditis; [7]): <79.167% | Survivors (Salmonella enteriditis; [7]): >25,000,000 org/ml | % Reduction (Salmonella enteriditis; [8]): <97.917% | Survivors (Salmonella enteriditis; [8]): >25,000,000 org/ml | % Reduction (Salmonella enteriditis; [9]): <97.917% | Survivors (Salmonella enteriditis; [9]): >25,000,000 org/ml | % Reduction (Salmonella enteriditis; [10]): <79.167% | Survivors (Salmonella enteriditis; [10]): >25,000,000 org/ml | % Reduction (Salmonella enteriditis; [11]): <97.917% | Survivors (Salmonella enteriditis; [11]): >25,000,000 org/ml | % Reduction (Salmonella enteriditis; [12]): <97.917% | Survivors (Salmonella enteriditis; [12]): >25,000,000 org/ml | % Reduction (Salmonella enteriditis; [13]): <79.167% | Survivors (Salmonella enteriditis; [13]): >25,000,000 org/ml | % Reduction (Salmonella enteriditis; [14]): <97.917% | Survivors (Salmonella enteriditis; [14]): >25,000,000 org/ml | % Reduction (Salmonella enteriditis; [15]): <97.917% | Survivors (Salmonella enteriditis; [15]): >25,000,000 org/ml | % Reduction (Salmonella enteriditis; [16]): 96.167% and 92.833% | Survivors (Salmonella enteriditis; [16]): 4,600,000 org/ml and 8,600,000 org/ml | % Reduction (Salmonella enteriditis; 4000 ppm, pH 1.5, 1 minute contact): 99.994% and 99.976% | % Reduction (Salmonella enteriditis; 4000 ppm, pH 1.5, 2 minutes contact): >99.999% and 99.997% | % Reduction (Salmonella enteriditis; [17]): 94.250% and 92.917% | Survivors (Salmonella enteriditis; [17]): 6,900,000 org/ml and 8,500,000 org/ml | % Reduction (Salmonella enteriditis; 4000 ppm, pH 1.75, 1 minute contact): 96.667% and 98.417% | % Reduction (Salmonella enteriditis; 4000 ppm, pH 1.75, 2 minutes contact): 98.933% and 98.833% | % Reduction (Salmonella enteriditis; [18]): 83.250% and 84.500% | Survivors (Salmonella enteriditis; [18]): 20,100,000 org/ml and 18,600,000 org/ml | % Reduction (Salmonella enteriditis; 4000 ppm, pH 2.0, 1 minute contact): 94.583% and 97.833% | % Reduction (Salmonella enteriditis; 4000 ppm, pH 2.0, 2 minutes contact): 96.167% and 91.417% | % Reduction (Salmonella enteriditis; [19]): <79.167% | Survivors (Salmonella enteriditis; [19]): >25,000,000 org/ml | % Reduction (Salmonella enteriditis; [20]): <79.167% | Survivors (Salmonella enteriditis; [20]): >25,000,000 org/ml | % Reduction (Salmonella enteriditis; [21]): <79.167% | Survivors (Salmonella enteriditis; [21]): >25,000,000 org/ml | % Reduction (Salmonella enteriditis; [22]): <79.167% | Survivors (Salmonella enteriditis; [22]): >25,000,000 org/ml | % Reduction (Salmonella enteriditis; [23]): <79.167% | Survivors (Salmonella enteriditis; [23]): >25,000,000 org/ml | % Reduction (Salmonella enteriditis; [24]): <79.167% | Survivors (Salmonella enteriditis; [24]): >25,000,000 org/ml | antimicrobial activity (in words) (Salmonella enteriditis; at less than pH 2.5 and, particularly less than 2.0): greatly enhanced | Average Organisms/Bird [1, 25]: 576,000 Organisms/Bird | Organisms/Bird [1, 25]: 584,000 Organisms/Bird and 536,000 Organisms/Bird and 660,000 Organisms/Bird and 520,000 Organisms/Bird and 580,000 Organisms/Bird | % Reduction ([1]; 2000 ppm SAS, 10 seconds dip, pre 5 bird dip pH 1.60, post pH 1.78, vs no-treatment control): 75.0% | Average Organisms/Bird [1, 26]: 246,400 Organisms/Bird | Organisms/Bird [1, 26]: 556,000 Organisms/Bird and 128,000 Organisms/Bird and 264,000 Organisms/Bird and 88,000 Organisms/Bird and 196,000 Organisms/Bird | % Reduction ([1]; 2000 ppm SAS, repeated test (Table 5), vs wash control): 88.7% | Average Organisms/Bird [1, 27]: 618,400 Organisms/Bird | Organisms/Bird [1, 27]: 396,000 Organisms/Bird and 528,000 Organisms/Bird and 392,000 Organisms/Bird and 476,000 Organisms/Bird and 1,300,000 Organisms/Bird | % Reduction ([1]; 4000 ppm SAS, 10 seconds dip, pre 5 bird dip pH 1.56, post pH 1.75, vs no-treatment control): 73.2% | performance in carcass dip (in words) ([1]; both 2000 ppm and 4000 ppm): perform well | % Reduction ([2]; pH 1.49, 10 seconds contact): 92.321% | Survivors ([2]; pH 1.49, 10 seconds contact): 43,000,000 org/ml | % Reduction ([2]; pH 1.49, 30 seconds contact): 92.804% | Survivors ([2]; pH 1.49, 30 seconds contact): 40,300,000 org/ml | % Reduction ([2]; pH 1.59, 10 seconds contact): 88.696% | Survivors ([2]; pH 1.59, 10 seconds contact): 63,300,000 org/ml | % Reduction ([2]; pH 1.59, 30 seconds contact): 89.732% | Survivors ([2]; pH 1.59, 30 seconds contact): 57,500,000 org/ml | % Reduction ([2]; pH 1.70, 10 seconds contact): 90.750% | Survivors ([2]; pH 1.70, 10 seconds contact): 51,800,000 org/ml | % Reduction ([2]; pH 1.70, 30 seconds contact): 91.785% | Survivors ([2]; pH 1.70, 30 seconds contact): 46,000,000 org/ml | % Reduction ([2]; pH 1.79, 10 seconds contact): 92.321% | Survivors ([2]; pH 1.79, 10 seconds contact): 43,000,000 org/ml | % Reduction ([2]; pH 1.79, 30 seconds contact): 93.839% | Survivors ([2]; pH 1.79, 30 seconds contact): 34,500,000 org/ml | % Reduction ([2]; pH 1.89, 10 seconds contact): 92.804% | Survivors ([2]; pH 1.89, 10 seconds contact): 40,300,000 org/ml | % Reduction ([2]; pH 1.89, 30 seconds contact): 94.375% | Survivors ([2]; pH 1.89, 30 seconds contact): 31,500,000 org/ml | % Reduction ([2]; pH 1.99, 10 seconds contact): 68.750% | Survivors ([2]; pH 1.99, 10 seconds contact): 175,000,000 org/ml | % Reduction ([2]; pH 1.99, 30 seconds contact): 81.785% | Survivors ([2]; pH 1.99, 30 seconds contact): 102,000,000 org/ml | % Reduction ([2]; pH 2.11, 10 seconds contact): 81.607% | Survivors ([2]; pH 2.11, 10 seconds contact): 103,000,000 org/ml | % Reduction ([2]; pH 2.11, 30 seconds contact): 82.857% | Survivors ([2]; pH 2.11, 30 seconds contact): 96,000,000 org/ml | % Reduction ([2]; pH 2.18, 10 seconds contact): 79.464% | Survivors ([2]; pH 2.18, 10 seconds contact): 115,000,000 org/ml | % Reduction ([2]; pH 2.18, 30 seconds contact): 98.089% | Survivors ([2]; pH 2.18, 30 seconds contact): 107,000,000 org/ml | % Reduction ([2]; pH 2.29, 10 seconds contact): 81.250% | Survivors ([2]; pH 2.29, 10 seconds contact): 105,000,000 org/ml | % Reduction ([2]; pH 2.29, 30 seconds contact): 86.250% | Survivors ([2]; pH 2.29, 30 seconds contact): 77,000,000 org/ml | % Reduction ([2]; pH 2.39, 10 seconds contact): 76.250% | Survivors ([2]; pH 2.39, 10 seconds contact): 133,000,000 org/ml | % Reduction ([2]; pH 2.39, 30 seconds contact): 77.142% | Survivors ([2]; pH 2.39, 30 seconds contact): 128,000,000 org/ml | % Reduction ([2]; pH 2.49, 10 seconds contact): 71.607% | Survivors ([2]; pH 2.49, 10 seconds contact): 159,000,000 org/ml | % Reduction ([2]; pH 2.49, 30 seconds contact): 72.142% | Survivors ([2]; pH 2.49, 30 seconds contact): 156,000,000 org/ml
